According to US7928140B2, “Benzothiazole PI3 kinase modulators for cancer treatment” (Amgen Inc., priority 2007, dated 2011):
Read-outs that look alike come from different tables or passages of the source.

Key:
PI3K α = target: T1, PI3K α (Homo sapiens, UniProt P42336); assay: In vitro PI3 kinase enzyme assay (alpha), ATP loss, bioluminescence; assay type: biochemical; details: read-out: PI3Kα ATP loss IC50;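 further: purified p110α/p85 heterodimer acting on PtdIns(4,5)P2 at room temperature, remaining ATP read by luminescence, inhibition scaled between compound-free wells with and without enzyme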
T1 construct: Full length p110 subunits of PI3K α, β and δ, N-terminally labeled with polyHis tag; polyHis (N); made in house; host or cells: Sf9 insect cells (baculovirus)
T1 sequence (P42336 whole entry, species assumed): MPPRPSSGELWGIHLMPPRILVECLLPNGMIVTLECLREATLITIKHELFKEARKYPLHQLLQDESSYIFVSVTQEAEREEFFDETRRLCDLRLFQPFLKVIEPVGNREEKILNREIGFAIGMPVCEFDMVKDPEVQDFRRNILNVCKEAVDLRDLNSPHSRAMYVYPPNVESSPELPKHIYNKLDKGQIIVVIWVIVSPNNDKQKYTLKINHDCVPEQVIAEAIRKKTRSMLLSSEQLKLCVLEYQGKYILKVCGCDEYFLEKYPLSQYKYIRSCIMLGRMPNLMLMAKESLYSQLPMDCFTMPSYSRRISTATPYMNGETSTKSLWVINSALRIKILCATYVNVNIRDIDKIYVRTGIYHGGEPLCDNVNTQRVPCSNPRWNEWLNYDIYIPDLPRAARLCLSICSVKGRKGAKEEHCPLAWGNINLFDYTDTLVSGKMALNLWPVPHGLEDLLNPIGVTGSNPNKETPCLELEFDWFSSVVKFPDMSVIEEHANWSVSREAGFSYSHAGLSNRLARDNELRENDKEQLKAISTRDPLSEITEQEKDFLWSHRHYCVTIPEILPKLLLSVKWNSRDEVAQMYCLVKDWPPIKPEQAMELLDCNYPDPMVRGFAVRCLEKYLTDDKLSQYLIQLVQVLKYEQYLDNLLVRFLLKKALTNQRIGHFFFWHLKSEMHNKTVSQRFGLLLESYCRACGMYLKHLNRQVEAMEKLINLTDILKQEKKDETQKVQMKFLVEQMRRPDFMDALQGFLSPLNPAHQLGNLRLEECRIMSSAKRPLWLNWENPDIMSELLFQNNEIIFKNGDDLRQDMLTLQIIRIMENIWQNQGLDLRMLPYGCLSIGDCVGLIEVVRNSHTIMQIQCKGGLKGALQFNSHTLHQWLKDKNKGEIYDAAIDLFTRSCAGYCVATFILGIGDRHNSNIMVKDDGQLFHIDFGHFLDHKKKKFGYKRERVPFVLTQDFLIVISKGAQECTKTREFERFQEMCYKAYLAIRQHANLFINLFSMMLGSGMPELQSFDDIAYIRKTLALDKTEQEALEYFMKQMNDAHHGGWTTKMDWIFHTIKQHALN
T1 sequence (P27986 whole entry partner, species assumed): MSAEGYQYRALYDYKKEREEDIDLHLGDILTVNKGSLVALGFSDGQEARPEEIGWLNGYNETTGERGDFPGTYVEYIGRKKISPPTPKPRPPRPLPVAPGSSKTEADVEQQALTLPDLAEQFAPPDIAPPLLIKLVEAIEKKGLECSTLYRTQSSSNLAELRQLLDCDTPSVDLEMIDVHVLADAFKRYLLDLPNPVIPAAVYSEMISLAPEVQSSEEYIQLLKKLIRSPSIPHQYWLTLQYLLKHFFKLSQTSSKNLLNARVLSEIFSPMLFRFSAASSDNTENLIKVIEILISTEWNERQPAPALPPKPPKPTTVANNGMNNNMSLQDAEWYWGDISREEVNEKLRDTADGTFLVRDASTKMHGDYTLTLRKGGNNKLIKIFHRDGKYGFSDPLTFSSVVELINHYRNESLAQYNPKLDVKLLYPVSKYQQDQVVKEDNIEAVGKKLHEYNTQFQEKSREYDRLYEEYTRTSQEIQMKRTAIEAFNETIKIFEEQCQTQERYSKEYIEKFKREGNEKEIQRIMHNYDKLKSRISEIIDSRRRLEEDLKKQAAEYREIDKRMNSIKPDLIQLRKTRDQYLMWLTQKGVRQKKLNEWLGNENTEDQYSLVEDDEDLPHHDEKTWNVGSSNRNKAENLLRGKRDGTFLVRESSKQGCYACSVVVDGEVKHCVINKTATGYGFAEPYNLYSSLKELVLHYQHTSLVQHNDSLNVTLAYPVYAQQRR
Experimental: Full length p110 subunits of PI3K α, β and δ, N-terminally labeled with polyHis tag, were co-expressed with p85 in baculovirus expression vectors in sf9 insect cells. P110/p85 heterodimers were purified by sequential Ni-NTA, Q-HP, and Superdex-100 chromatography. Purified α, β and δ isozymes were stored at −20° C. in 20 mM Tris, pH 8, 0.2M NaCl, 50% glycerol, 5 mM DTT, 2 mM Na cholate.
PI3K enzyme assays (alpha, beta, delta and gamma) were performed in 25 mL with the above final concentrations of components in white polypropylene plates (Costar catalogue #3355). Phosphatidyl inositol phosphoacceptor, PtdIns(4,5)P2 (eg. P4508) was obtained from Echelon Biosciences. The ATPase activity of the alpha and gamma isozymes was not greatly stimulated by PtdIns(4,5)P2 under these conditions and was therefore omitted from the assay of these isozymes. Test compounds were dissolved in DMSO and diluted with three-fold serial dilutions. The compound in DMSO (1 μL) was added per test well, and the inhibition relative to reactions containing no compound, with and without enzyme was determined. After assay incubation at RT, the reaction was stopped and residual ATP determined by addition of an equal volume of a commercial ATP bioluminescence kit (Perkin Elmer EasyLite) according to the manufacturer's instructions, and detected using an Analyst GT luminometer.

PI3K β = target: T2, PI3K β (Homo sapiens, UniProt P42338); assay: In vitro PI3 kinase enzyme assay (beta), ATP loss, bioluminescence; assay type: biochemical; details: read-out: PI3Kβ ATP loss IC50;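 further: purified p110β/p85 heterodimer with PtdIns(4,5)P2 as acceptor, incubated at room temperature, leftover ATP read by luminescence, inhibition scaled to compound-free wells with and without enzyme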
T2 construct: Full length p110 subunits of PI3K α, β and δ, N-terminally labeled with polyHis tag; polyHis (N); made in house; host or cells: Sf9 insect cells (baculovirus)
T2 sequence (P42338 whole entry): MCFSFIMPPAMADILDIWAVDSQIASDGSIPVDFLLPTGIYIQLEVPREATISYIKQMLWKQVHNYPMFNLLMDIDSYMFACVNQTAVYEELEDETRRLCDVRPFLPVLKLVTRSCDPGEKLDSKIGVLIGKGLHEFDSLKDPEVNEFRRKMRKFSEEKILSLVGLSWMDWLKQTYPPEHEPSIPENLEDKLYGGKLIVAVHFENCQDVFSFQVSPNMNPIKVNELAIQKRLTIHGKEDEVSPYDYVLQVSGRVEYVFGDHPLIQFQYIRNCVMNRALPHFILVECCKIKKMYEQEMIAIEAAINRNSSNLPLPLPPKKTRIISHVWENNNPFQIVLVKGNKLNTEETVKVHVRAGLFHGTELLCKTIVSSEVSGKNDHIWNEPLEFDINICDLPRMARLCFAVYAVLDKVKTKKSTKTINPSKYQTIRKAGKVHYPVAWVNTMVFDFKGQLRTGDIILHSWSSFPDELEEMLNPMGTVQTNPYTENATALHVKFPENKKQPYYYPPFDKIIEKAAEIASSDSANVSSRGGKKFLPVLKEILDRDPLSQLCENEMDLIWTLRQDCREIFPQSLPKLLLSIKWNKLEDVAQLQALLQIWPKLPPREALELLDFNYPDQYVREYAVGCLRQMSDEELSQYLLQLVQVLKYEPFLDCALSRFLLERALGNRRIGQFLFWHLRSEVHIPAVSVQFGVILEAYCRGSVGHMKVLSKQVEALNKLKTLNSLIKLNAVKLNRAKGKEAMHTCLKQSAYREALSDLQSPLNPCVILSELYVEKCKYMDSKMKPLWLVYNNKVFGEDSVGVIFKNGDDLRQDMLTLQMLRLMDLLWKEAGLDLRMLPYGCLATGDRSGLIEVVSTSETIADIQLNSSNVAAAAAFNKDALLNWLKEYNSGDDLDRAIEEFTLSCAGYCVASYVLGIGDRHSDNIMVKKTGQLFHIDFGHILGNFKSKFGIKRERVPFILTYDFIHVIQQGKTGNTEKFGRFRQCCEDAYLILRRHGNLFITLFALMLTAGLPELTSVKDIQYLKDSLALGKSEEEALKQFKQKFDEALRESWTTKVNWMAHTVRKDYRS
T2 sequence (P27986 whole entry partner): as the sequence (P27986 whole entry partner, species assumed) above

[1] = test system: phosphorylation of Serine 473 in Akt, HCT 116 human colon carcinoma cells; assay: Cell-based phospho-AKT Ser473 assay (MSD sandwich immunoassay, IGF-1 stimulated)
Summary of the method: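 Akt Ser473 phosphorylation was measured by MSD electrochemiluminescent sandwich immunoassay in lysates of HCT116 cells (16,000 cells/well). Cells received a compound dilution series for 2 h at 37 °C before a 15 min IGF-1 (100 ng/ml) stimulus, with IC50 calculated from the dose-response.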

[2] = Homo sapiens, HCT-116, HCT 116 cells, read-out: HCT 116 pAKT IC50

Row | SMILES | IC50 (PI3K α) | IC50 (PI3K β) | IC50 [1, 2] | IC50 ([1]; HCT 116 cells, read-out: HCT 116 pAKT IC50) | IC50 ([1]; Homo sapiens, HCT-116, read-out: HCT 116 pAKT IC50)
1 | CC(=O)Nc1nc2ccc(-c3cncc(Sc4ccccc4F)n3)cc2s1 [Example 130, N-(6-(6-((2-fluorophenyl)sulfanyl)-2-pyrazinyl)-1,3-benzothiazol-2-yl)acetamide] | 0.039 µM | 0.065 µM | 0.442 µM |  | 
2 | CC(=O)Nc1nc2ccc(-c3cnc(Cl)c(NS(=O)(=O)Cc4ccccc4)c3)cc2s1 [Example 188, N-(6-(6-chloro-5-(phenylmethylsulfonamido)pyridin-3-yl)benzo[d]thiazol-2-yl)acetamide] | 0.0069 µM | 0.0254 µM | 0.11 µM |  | 
3 | CC(=O)Nc1nc2ccc(-c3cnc(Cl)c(NS(=O)(=O)c4ccc(C(C)O)cc4)c3)cc2s1 (single isomer, unassigned) [Example 257, N-(6-(6-chloro-5-(((4-(1-hydroxyethyl)phenyl)sulfonyl)amino)-3-pyridinyl)-1,3-benzothiazol-2-yl)acetamide] | 0.0062 µM | 0.0072 µM |  | 0.0083 µM | 
4 | COc1ccc(S(=O)(=O)c2cccc(-c3ccc4nc(NC(C)=O)sc4c3)n2)cc1 [Example 68, N-(6-(6-(4-Methoxyphenylsulfonyl)pyridin-2-yl)benzo[d]thiazol-2-yl)acetamide] | 0.0865 µM | 0.676 µM | 0.664 µM |  | 
5 | CC(=O)Nc1nc2ccc(-c3ccnc(OCc4cccc(C)c4)n3)cc2s1 [Example 107, N-(6-(2-((3-methylbenzyl)oxy)-4-pyrimidinyl)-1,3-benzothiazol-2-yl)acetamide] | 0.181 µM | 0.836 µM | 1.21 µM |  | 
6 | CC(=O)Nc1nc2ccc(-c3cncc(N(C)S(=O)(=O)c4ccccc4)c3)cc2s1 [Example 224, N-(6-(5-(N-methylphenylsulfonamido)pyridin-3-yl)benzo[d]thiazol-2-yl)acetamide] | 0.111 µM | 1.49 µM | 0.145 µM |  | 
7 | CC(=O)Nc1nc2ccc(-c3cnc(Cl)c(NS(=O)(=O)c4ccc(OC(F)F)cc4)c3)cc2s1 [Example 182, N-(6-(6-chloro-5-(4-(difluoromethoxy)phenylsulfonamido)pyridin-3-yl)benzo[d]thiazol-2-yl)acetamide] | 0.006 µM | 0.006 µM | 0.0249 µM |  | 
8 | CC(=O)Nc1nc2ccc(-c3cncc(NS(=O)(=O)c4ccc(F)cc4)c3)cc2s1 [Example 198, N-(6-(5-(4-fluorophenylsulfonamido)pyridin-3-yl)benzo[d]thiazol-2-yl)acetamide] | 0.0053 µM | 0.0147 µM | 0.0404 µM |  | 
9 | CC(=O)Nc1nc2ccc(-c3ccnc(Sc4ccc(C)cc4)n3)cc2s1 [Example 36, N-(6-(2-((4-methylphenyl)sulfanyl)-4-pyrimidinyl)-1,3-benzothiazol-2-yl)acetamide] | 0.0595 µM | 0.554 µM | 2.32 µM |  | 
10 | CC(=O)Nc1nc2ccc(-c3ccnc(OC(C)C)n3)cc2s1 [Example 6, N-(6-(2-(1-methylethoxy)-4-pyrimidinyl)-1,3-benzothiazol-2-yl)acetamide] | 0.24 µM | 2.14 µM | 0.919 µM |  | 
11 | CC(=O)Nc1nc2ccc(-c3ccnc(OCc4cccnc4)n3)cc2s1 [Example 2, N-(6-(2-(3-pyridinylmethoxy)-4-pyrimidinyl)-1,3-benzothiazol-2-yl)acetamide] | 0.452 µM | > 40 µM | 0.789 µM |  | 
12 | CC(=O)Nc1nc2ccc(-c3cccc(NS(=O)(=O)c4ccc(C)cc4)c3)nc2s1 [Example 136, N-(5-(3-(4-methylphenylsulfonamido)phenyl)thiazolo[5,4-b]pyridin-2-yl)acetamide] | 0.0586 µM | 0.199 µM | 0.172 µM |  | 
13 | COc1ccc(S(=O)(=O)c2cccc(-c3cc(F)c4nc(NC(C)=O)sc4c3)n2)cc1 [Example 148, N-(4-fluoro-6-(6-((4-methoxyphenyl)sulfonyl)-2-pyridinyl)-1,3-benzothiazol-2-yl)acetamide] | 0.151 µM | 1.36 µM | 0.881 µM |  | 
14 | COCCNc1nccc(-c2ccc3nc(NC(C)=O)sc3c2)n1 [Example 47, N-(6-(2-((2-methoxyethyl)amino)-4-pyrimidinyl)-1,3-benzothiazol-2-yl)acetamide] | 0.696 µM | 18.4 µM | 1.15 µM |  | 
15 | COc1ccc(Sc2cncc(-c3ccc4nc(NC(C)=O)sc4c3)n2)cc1 [Example 133, N-(6-(6-((4-methoxyphenyl)sulfanyl)-2-pyrazinyl)-1,3-benzothiazol-2-yl)acetamide] | 0.0415 µM | 0.0754 µM | 1.23 µM |  | 
16 | CC(=O)Nc1nc2ccc(-c3cnc(Cl)c(NS(=O)(=O)c4cc(Cl)cc(Cl)c4)c3)cc2s1 [Example 175, N-(6-(6-chloro-5-(3,5-dichlorophenylsulfonamido)pyridin-3-yl)benzo[d]thiazol-2-yl)acetamide] | 0.0032 µM | 0.0054 µM | 0.0117 µM |  | 

Row | SMILES | IC50 (PI3K α) | IC50 (PI3K β) | IC50 [1, 2] | IC50 ([1]; HCT 116 cells, read-out: HCT 116 pAKT IC50) | IC50 ([1]; Homo sapiens, HCT-116, read-out: HCT 116 pAKT IC50)
17 | CC(=O)Nc1nc2ccc(-c3cnc(Cl)c(NS(=O)(=O)c4cccc(OC(F)F)c4)c3)cc2s1 [Example 184, N-(6-(6-chloro-5-(3-(difluoromethoxy)phenylsulfonamido)pyridin-3-yl)benzo[d]thiazol-2-yl)acetamide] | 0.0072 µM | 0.0122 µM | 0.0065 µM |  | 
18 | CCCCS(=O)(=O)Nc1cc(-c2ccc3nc(NC(C)=O)sc3c2)cnc1Cl [Example 178, N-(6-(5-(butylsulfonamido)-6-chloropyridin-3-yl)benzo[d]thiazol-2-yl)acetamide] | 0.0106 µM | 0.0199 µM | 0.0156 µM |  | 
19 | CC(=O)Nc1nc2ccc(-c3ccnc(OCC(C)(C)C)n3)cc2s1 [Example 42, N-(6-(2-(2,2-dimethylpropoxy)-4-pyrimidinyl)-1,3-benzothiazol-2-yl)acetamide] | 0.501 µM | 43 µM | 6.18 µM |  | 
20 | CC(=O)Nc1nc2ccc(-c3cncc(Cl)n3)cc2s1 [Example 150, N-(6-(6-chloro-2-pyrazinyl)-1,3-benzothiazol-2-yl)acetamide] | 0.186 µM | 0.902 µM | 0.503 µM |  | 
21 | CC(=O)Nc1nc2ccc(-c3cnc(C)c(NS(=O)(=O)c4cccc(C(F)(F)F)c4)c3)cc2s1 [Example 113, N-(6-(6-methyl-5-(((3-(trifluoromethyl)phenyl)sulfonyl)amino)-3-pyridinyl)-1,3-benzothiazol-2-yl)acetamide] | 0.0064 µM | 0.013 µM | 0.0067 µM |  | 
22 | CC(=O)Nc1nc2ccc(-c3ccnc(N(C)S(=O)(=O)c4ccc(C(C)(C)C)cc4)n3)cc2s1 [Example 205, N-(6-(2-(4-tert-butyl-N-methylphenylsulfonamido)pyrimidin-4-yl)benzo[d]thiazol-2-yl)acetamide] | 0.0295 µM | 0.0872 µM | 0.0576 µM |  | 
23 | COc1ccc(-c2ccc3nc(NC(C)=O)sc3c2)cn1 [Example 242, N-(6-(6-methoxypyridin-3-yl)benzo[d]thiazol-2-yl)acetamide] | 0.0739 µM | > 40 µM | 0.636 µM |  | 
24 | CC(=O)Nc1nc2ccc(-c3cnc(Cl)c(NC(C)C)c3)cc2s1 [Example 132, N-(6-(6-chloro-5-((1-methylethyl)amino)-3-pyridinyl)-1,3-benzothiazol-2-yl)acetamide] | 0.0414 µM | 0.379 µM | 0.316 µM |  | 
25 | CC(=O)Nc1nc2ccc(-c3cncc(NS(=O)(=O)c4cccc(C(F)(F)F)c4)c3)cc2s1 [Example 197, N-(6-(5-(3-(trifluoromethyl)phenylsulfonamido)pyridin-3-yl)benzo[d]thiazol-2-yl)acetamide] | 0.0094 µM | 0.0119 µM | 0.0798 µM |  | 
26 | CC(C)(O)c1ccc(S(=O)(=O)Nc2cc(-c3ccc4nc(N)sc4c3)cnc2Cl)cc1 [Example 324, N-(5-(2-amino-1,3-benzothiazol-6-yl)-2-chloro-3-pyridinyl)-4-(1-hydroxy-1-methylethyl)benzenesulfonamide] | 0.0109 µM | 0.0171 µM | 0.151 µM |  | 
27 | CC(=O)Nc1nc2ccc(-c3ccnc(N(C)S(=O)(=O)c4ccc(C(F)(F)F)cc4)n3)cc2s1 [Example 213, N-(6-(2-(N-methyl-4-(trifluoromethyl)phenylsulfonamido)pyrimidin-4-yl)benzo[d]thiazol-2-yl)acetamide] | 0.0913 µM | 0.119 µM | 0.0928 µM |  | 
28 | CC(=O)Nc1nc2ccc(-c3ccnc(N(C)S(=O)(=O)c4cccc(C)c4)n3)cc2s1 [Example 93, N-(6-(2-(N,3-Dimethylphenylsulfonamido)pyrimidin-4-yl)benzo[d]thiazol-2-yl)acetamide] | 0.102 µM | 0.174 µM | 0.218 µM |  | 
29 | CC(=O)Nc1nc2ccc(-c3ccnc(OCCc4ccccc4)n3)cc2s1 [Example 7, N-(6-(2-(2-phenylethoxy)-4-pyrimidinyl)-1,3-benzothiazol-2-yl)acetamide] | 0.226 µM | 2.61 µM |  |  | > 25 µM
30 | CC(=O)Nc1nc2ccc(-c3ccnc(Sc4ccccc4F)n3)cc2s1 [Example 23, N-(6-(2-((2-fluorophenyl)sulfanyl)-4-pyrimidinyl)-1,3-benzothiazol-2-yl)acetamide] | 0.0623 µM | 0.307 µM | 0.35 µM |  | 
31 | CC(=O)Nc1nc2ccc(-c3cnc(Cl)c(NS(=O)(=O)c4cccs4)c3)cc2s1 [Example 186, N-(6-(6-chloro-5-(thiophene-2-sulfonamido)pyridin-3-yl)benzo[d]thiazol-2-yl)acetamide] | 0.0066 µM | 0.0143 µM | 0.0156 µM |  | 
